Test results taken from patent US7084136B2, “Drug composition antagonistic to both PGD2/TXA2 receptors” (Shionogi & Co., Ltd., priority 2000, dated 2006).
Where two headings read alike, the source gives them in different places. Marks after values point to notes of the source that are not given here.

Experiments:
[1] = system: PGD2 receptor; assay: Acceleration of vascular permeability of conjunctiva induced by PGD2 (Evans blue dye leakage); format: in vivo, guinea pig; conditions: for ED50 PGD2: oral, 1 h before challenge, 0.1% PGD2 instillation, conjunctival dye leakage, guinea pigs; for inhibition of the increase in vascular permeability in conjunctiva by the stimulation with PGD2: summary of Table 80, oral 1 h before challenge, guinea pig
Method: (§1) Acceleration of Vascular Permeability of Conjunctiva Induced by PGD2 and U-46619
(§2) Using male Hartley guinea pigs, PGD2- and TxA2 receptor-mediated increase in conjunctival vascular permeability was produced by instillation of each 10 μl solution of either 0.1% PGD2 or U-46619 (TXA2 receptor agonist) to the both eyes without anesthetization. Immediately after that, Evans blue dye (20 mg/kg) was intravenously injected. 30 min after the challenge, guinea pigs were sacrificed by bleeding under anesthesia with Pentobarbital (30 mg/kg, i.p.) and the tissue of conjunctiva was removed. The dye leaked into the tissue was extracted in formamide 3 ml at 60° C. for more than 24 h, and then centrifuged. The absorbance of the supernatant was measured at 620 nm. The amount of dye was calculated from the calibration curve of Evans blue dye. Each compound was suspended in 0.5% methyl-cellulose and administrated orally at 1 h before the challenge. The antagonistic activity was evaluated by the inhibition ratio against the dye leaked into conjunctiva caused by PGD2 or U-46619 at each dose and then a 50% effective dose of inhibition (ED50 value) of each compound was calculated.

[2] = system: Male Hartley guinea pigs; assay: Antigen-induced bronchial hyperresponsiveness (acetylcholine PD200, OVA-sensitized guinea pigs); format: in vivo, guinea pig; conditions: for inhibition of the induction of bronchial hyperresponsiveness: summary of Table 74 to Table 76, oral, guinea pig
Method: Comparative Experiment 2 Antigen-Induced Bronchial Hyperresponsiveness
Male Hartley guinea pigs were actively sensitized to ovalbumin (OVA) by inhalation of aerosolized solution of 1% ovalbumin twice at a week interval. One week after the second sensitization, the animals were treated with antihistamine, diphenhydramine (10 mg/kg, i.p.), and then challenged with 1% OVA aerosol for 5 min. Twenty four hours later, acetylcholine at doses at 3.13, 6.25, 12.5, 25, 50 and 100 micro g/kg was sequentially injected into the animals which were anesthetized with pentobarbital (30 mg/kg, i.p.). The bronchoconstriction induced by each dose of acetylcholine was monitored by the modified method of Konzett-Rössler technique, and made a dose-response curve of acetylcholine. Using the dose-response curve, the dose required for 200% increase in bronchoconstriction from baseline (PD200) was calculated in each animal and used as an indication of bronchial responsiveness. Compounds were orally administered 1 hour before antigen challenge. **: P<0.01 vs Vehicle(Dunnett's test), ^##: P<0.01 vs Vehicle(Student's t test).

[3] = molecular target: T1, TXA2 receptor (Homo sapiens, UniProt P21731); assay: Binding activity to TXA2 receptor ([3H](+)-S-145 sodium salt, human platelet membrane fraction)
T1 construct: The human platelet membrane fraction was prepared in accordance with Experiment 1 (1); from tissue; host or cells: human platelet membrane fraction from blood of healthy volunteers
T1 sequence (P21731 1-343): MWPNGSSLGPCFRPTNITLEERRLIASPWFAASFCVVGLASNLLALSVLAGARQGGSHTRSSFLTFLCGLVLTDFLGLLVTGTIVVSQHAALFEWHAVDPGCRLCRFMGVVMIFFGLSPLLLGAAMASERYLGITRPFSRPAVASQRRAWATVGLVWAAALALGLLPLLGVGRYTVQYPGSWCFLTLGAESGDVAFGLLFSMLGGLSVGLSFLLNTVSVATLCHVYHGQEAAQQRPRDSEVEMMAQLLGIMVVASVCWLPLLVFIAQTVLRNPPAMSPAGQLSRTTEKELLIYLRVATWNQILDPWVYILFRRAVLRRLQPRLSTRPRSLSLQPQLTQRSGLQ
Method: Experiment 2 Binding Activity to TXA2 Receptor
(1) Preparation of Human Platelet Membrane Fraction
The human platelet membrane fraction was prepared in accordance with Experiment 1 (1).
(2) Binding to TXA2 Receptor
To a binding-reaction solution (50 mM Tris/HCl, pH 7.4, 10 mM MgCl2) (0.2 ml) were added the human platelet membrane fraction (0.05 mg) and 2 nM Sodium [^3H](+)-(5Z)-7-[3-endo-[(phenylsulfonyl)amino]bicyclo[2.2.1]hept-2-exo-yl]heptenoate (Japanese Patent Publication (Kokoku) No.79060/1993, hereinafter referred to as (+)-S-145 sodium salt) (26.4 Ci/mmol), and the mixture was reacted at room temperature for 90 min. After the reaction, the resultant mixture was filtered through a glass fiber filter paper and washed several times with cooled physiological saline, then the radioactivity retained on the filter paper was measured. The specific-binding ratio was calculated by subtracting the non-specific binding ratio (the radio activity similarly determined in the presence of 10 μM (+)-S-145 sodium salt) from the total binding. The inhibitory activity of each compound was expressed as the concentration required for 50% inhibition (IC50), which was determined by depicting a substitution curve by plotting the binding ratio (%) in the presence of each compound, where the binding ratio in the absence of a test compound is 100%.

[4] = system: TxA2 receptor; assay: Acceleration of vascular permeability of conjunctiva induced by U-46619 (Evans blue dye leakage); format: in vivo, guinea pig; conditions: for ED50 TXA2 (U-46619): oral, 1 h before challenge, 0.1% U-46619 instillation, conjunctival dye leakage, guinea pigs; for inhibition of the increase in vascular permeability in conjunctiva caused by U-46619: summary of Table 80, oral 1 h before challenge, guinea pig
Method: as §1, §2

[5] = comparative experiment in accordance with Experiment 2, read-out: Experiment 2 Antagonistic activity against TXA2 receptor IC50

IC50 [3, 5] | IC50 ([3]; human platelet membrane fraction, 2 nM [3H](+)-S-145 sodium salt, read-out: Binding activity to TXA2 receptor in human platelet membrane fraction IC50) | Structure (SMILES) | ED50 PGD2 [1] | inhibition of the increase in vascular permeability in conjunctiva by the stimulation with PGD2 [1] | Log PD200 ([2]; 10 mg/kg orally 1 hour before antigen challenge, acetylcholine dose for 200% increase in bronchoconstriction, 24 h after OVA challenge) | inhibition of the induction of bronchial hyperresponsiveness [2] | ED50 TXA2 (U-46619) [4] | inhibition of the increase in vascular permeability in conjunctiva caused by U-46619 [4] | Log PD200 ([2]; 1 mg/kg orally 1 hour before antigen challenge, OVA-sensitized guinea pigs, acetylcholine) | Log PD200 ([2]; 10 mg/kg orally 1 hour before antigen challenge, OVA-sensitized guinea pigs, acetylcholine)
2.3 nM | 2.3 nM | Cc1cccn1S(=O)(=O)c1ccc(C(=O)N[C@@H]2[C@@H](CCCC/C=C/C(=O)O)C[C@H]3C[C@@H]2C3(C)C)s1 [II-7I-55a] | 0.33 mg/kg | showed both responses | 1.442 ± 0.055** | suppressed | 0.030 mg/kg | showed both responses |  | 
3.8 nM |  | O=C(O)CCC/C=C\C[C@H]1[C@@H]2CC[C@@H](C2)[C@@H]1NS(=O)(=O)c1ccccc1 [A, reference compound] | >30 mg/kg | suppressed only U-46619-induced response |  | suppressed | 0.017 mg/kg | suppressed | 1.29 ± 0.04 | 1.61 ± 0.09**
